Test results: US9018248B2, “Fatty acid derivatives of catechins and methods of their use” (Genesis Group Inc., priority 2010, dated 2015)

Assay: Reducing power (Fe3+-Fe2+ transformation)
Settings: test compounds 1 mM in 95% ethanol, ascorbic acid equivalents
Method: An ORAC (Oxygen Radical Absorbance Capacity) assay was carried out using a Fluostar Optima plate reader (BMG Labtech, Durham, N.C.) equipped with an incubator and two injector pumps. A modified method for lipophilic antioxidants was followed, in which randomly methylated cyclodextrin (RMCD) was used as water solubility enhancer, as described by Huang et al, J. Agric. Food Chem., 2002, 50, 1815-1821. Trolox standards (6.25-50 μM) and samples (0.25 μM) were dissolved in acetone/water (1:1, v/v) containing 7% RMCD. Fluorescein and […] [2,2′-azobis(2-aminopropane)dihydrochloride] were used as the probe and radical generator, respectively. […] Fluorescence was measured at an excitation wavelength of 485 nm and emission of 520 nm. […] (3b) Reducing Power The reducing power of EGCG and its derivatives (compounds 1a-1c) was determined according to Oyaizu (1986). […] The content was mixed well and the absorbance was recorded at 700 nm. Higher absorbance of the reaction mixture indicates greater reducing power. […] (3c) Metal Chelation The metal chelation capacity was measured following a procedure by Decker E. A. et al., J. Agric. […] The absorbance was measured afterwards at 562 nm. A blank without ferrozine was run for each compound, since the antioxidant-Fe^2+ complex gives a colour that might interfere with the absorbance reading. […] The spectrum was recorded after 1 min. […]

In the case of O=C(O[C@@H]1Cc2c(O)cc(O)cc2O[C@@H]1c1cc(O)c(O)c(O)c1)c1cc(O)c(O)c(O)c1 [EGCG, Epigallocatechin gallate, reference compound], the “Reducing power relative to ascorbic acid” value is reported as “highest reducing power”.
